The values that follow come from US6469028B1, “Synthesis and use of retinoid compounds having negative hormone and/or anatgonist activities” (Allergan, Inc., priority 1995, dated 2002).

Common to all, as to experiment: Holoreceptor transactivation assay
Holding throughout (assay type): cell-based

One experiment has as its target T1, RARγ (Homo sapiens, UniProt P13631).
T1 sequence (P13631 1-454): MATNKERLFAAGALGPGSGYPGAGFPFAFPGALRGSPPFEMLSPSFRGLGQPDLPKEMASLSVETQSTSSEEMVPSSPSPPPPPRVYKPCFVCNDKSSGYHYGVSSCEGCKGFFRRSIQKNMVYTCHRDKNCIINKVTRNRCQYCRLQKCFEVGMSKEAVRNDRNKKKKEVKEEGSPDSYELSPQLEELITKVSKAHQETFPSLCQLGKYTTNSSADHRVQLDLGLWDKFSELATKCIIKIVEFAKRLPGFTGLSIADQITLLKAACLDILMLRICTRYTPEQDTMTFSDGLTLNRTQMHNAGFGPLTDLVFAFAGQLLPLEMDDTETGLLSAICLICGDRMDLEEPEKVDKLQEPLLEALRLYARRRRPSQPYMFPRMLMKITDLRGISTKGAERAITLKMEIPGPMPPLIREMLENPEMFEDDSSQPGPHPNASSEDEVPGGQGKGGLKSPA
Also on record: expressed in transfected cells; host or cells: CV1 cells. As to conditions: relative to all trans retinoic acid; read-out: Transactivation Assay Efficacy (% of RA activity) RARγ. The source says: (§1) A holoreceptor transactivation assay and a ligand binding assay which measure the antagonist/agonist like activity of the compounds of the invention, or their ability to bind to the several retinoid receptor subtypes, respectively, are described in published PCT Application No. WO93/11755 (particularly on pages 30-33 and 37-41) published on Jun. 24, 1993, the specification of which is also incorporated herein by reference. A description of the holoreceptor transactivation assay is also provided below.
(§2) CV1 cells (5,000 cells/well) were transfected with an RAR reporter plasmid MTV-TREp-LUC (50 ng) along with one of the RAR expression vectors (10 ng) in an automated 96-well format by the calcium phosphate procedure of Heyman et al. Cell 68: 397-406. For RXR-α and RXR-γ transactivation assays, an RXR-responsive reporter plasmid CRBPII-tk-LUC (50 ng) along with the appropriate RXR expression vectors (10 ng) was used substantially as described by Heyman et al. above, and Allegretto et al. J. Biol. Chem. 268: 26625-26633. For RXR-β transactivation assays, an RXR-responsive reporter plasmid CPRE-tk-LUC ([…]) along with RXR-β expression vector ([…]) was used as described in above. These reporters contain DRI elements from human CRBPII and certain DRI elements from promotor, respectively (see Mangelsdorf et al. The Retinoids: Biology Chemistry and Medicine, pp. 319-349, Raven Press Ltd., New York and Heyman et al., cited above). A β-galactosidase (50 ng) expression vector was used as an internal control in the transfections to normalize for variations in transfection efficiency. The cells were transfected in triplicate for 6 hours, followed by incubation with retinoids for 36 hours, and the extracts were assayed for luciferase and […] activities. The detailed experimental procedure for holoreceptor transactivations has been described in Heyman et al. above, and Allegretto et al. cited above. The results obtained in this assay are expressed in EC50 numbers, as they are also in the chimeric receptor transactivation assay. The Heyman et al. Cell 68: 397-406, Allegretto et al. J. Biol. Chem. 268: 26625-26633, and Mangelsdorf et al. The Retinoids: Biology, Chemistry, and Medicine, pp. 319-349, Raven Press Ltd., New York, are expressly incorporated herein by reference. The results of ligand binding assay are expressed in Kd numbers. (See Cheng et al. Biochemical Pharmacology 22: 3099-3108, expressly incorporated herein by reference.)
(§3) A compound should not cause significant activation of a reporter gene through a given receptor subtype (RAR-α, RAR-β or RAR-γ) in the holoreceptor transactivation assay, in order to qualify as an RAR antagonist with utility in the present invention.

For another experiment, the target named is T2, RARβ (Homo sapiens, UniProt P10826).
T2 sequence (P10826 1-448 isoform P10826-2): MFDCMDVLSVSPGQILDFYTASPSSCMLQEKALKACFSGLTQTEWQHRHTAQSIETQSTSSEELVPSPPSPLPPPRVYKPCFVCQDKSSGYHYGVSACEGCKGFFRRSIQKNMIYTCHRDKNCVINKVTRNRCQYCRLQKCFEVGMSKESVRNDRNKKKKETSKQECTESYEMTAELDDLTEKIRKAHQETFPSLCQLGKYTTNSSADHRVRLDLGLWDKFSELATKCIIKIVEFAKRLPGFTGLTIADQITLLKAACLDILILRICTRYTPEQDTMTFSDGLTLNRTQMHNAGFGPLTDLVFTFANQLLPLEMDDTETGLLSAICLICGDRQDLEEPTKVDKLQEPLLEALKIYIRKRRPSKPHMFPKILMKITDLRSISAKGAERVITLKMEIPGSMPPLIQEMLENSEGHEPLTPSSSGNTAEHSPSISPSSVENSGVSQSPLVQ
Details: expressed in transfected cells; host or cells: CV1 cells. As to conditions: relative to all trans retinoic acid; read-out: Transactivation Assay Efficacy (% of RA activity) RARβ.
Description: as §1, §2, §3

The target in another experiment is T3, RARα (Homo sapiens, UniProt P10276).
T3 sequence (P10276 1-462): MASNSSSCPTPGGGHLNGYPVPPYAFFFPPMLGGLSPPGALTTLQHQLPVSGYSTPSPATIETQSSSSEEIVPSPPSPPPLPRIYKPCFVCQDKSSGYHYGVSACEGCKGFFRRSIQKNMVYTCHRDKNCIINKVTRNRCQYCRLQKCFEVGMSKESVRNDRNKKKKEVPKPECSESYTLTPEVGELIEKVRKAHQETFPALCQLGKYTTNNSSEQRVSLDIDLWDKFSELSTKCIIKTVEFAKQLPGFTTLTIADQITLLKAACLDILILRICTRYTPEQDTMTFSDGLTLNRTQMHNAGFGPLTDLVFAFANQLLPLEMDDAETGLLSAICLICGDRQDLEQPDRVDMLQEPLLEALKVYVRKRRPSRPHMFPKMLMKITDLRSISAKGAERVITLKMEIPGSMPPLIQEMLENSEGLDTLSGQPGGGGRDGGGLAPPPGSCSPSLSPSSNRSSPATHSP
Details: expressed in transfected cells; host or cells: CV1 cells. As to conditions: relative to all trans retinoic acid; read-out: Transactivation Assay Efficacy (% of RA activity) RARα.
Description: as §1, §2, §3

A further experiment relates to RXRβ. As to conditions: relative to all trans retinoic acid.
Description: as §1, §2

As for `Cc1ccc(C2=CCC(C)(C)c3ccc(C#Cc4ccc(C(=O)O)cc4)cc32)cn1` [Compound 18, 4-[(5,6-Dihydro-5,5-dimethyl-8-(2-methyl-5-pyridyl)-2-naphthalenyl)ethynyl]benzoic acid], the Emax at RARγ is 0%; at RARβ, 1%; at RARα it was 4%. In addition, the “Transactivation Assay Efficacy (% of RA activity) RXRβ” value in the experiment on RXRβ is recorded as 10.00 % of RA activity.

Consider `CC1(C)CC=C(c2ccccn2)c2cc(C#Cc3ccc(C(=O)O)cc3)ccc21` [Compound 19, 4-[(5,6-Dihydro-5,5-dimethyl-8-(2-pyridyl)-2-naphthalenyl)ethynyl]benzoic acid], for which the figures for the Emax on RARγ, on RARβ and on RARα were 3%, 5% and 0%, respectively. Further, in the experiment on RXRβ, the “Transactivation Assay Efficacy (% of RA activity) RXRβ” value is reported as 9.0 % of RA activity.

Consider `Cc1cccc(C2=CCC(C)(C)c3ccc(C#Cc4ccc(C(=O)O)cc4)cc32)c1` [Compound 20, 4-[(5,6-Dihydro-5,5-dimethyl-8-(3-methylphenyl)-2-naphthalenyl)ethynyl]benzoic acid], for which the Emax at RARγ was found to be 0%; on RARβ, 4%; at RARα, 3%. For the same compound, in the experiment on RXRβ, the “Transactivation Assay Efficacy (% of RA activity) RXRβ” value is given as 0.00 % of RA activity.

Consider `CCc1ccc(C2=CCC(C)(C)c3ccc(C#Cc4ccc(C(=O)O)cc4)cc32)cc1` [Compound 21, 4-[(5,6-Dihydro-5,5-dimethyl-8-(4-ethylphenyl)-2-naphthalenyl)ethynyl]benzoic acid], for which the Emax at RARγ, on RARβ and on RARα was 2% each time. The “Transactivation Assay Efficacy (% of RA activity) RXRβ” value in the experiment on RXRβ is 0.00 % of RA activity.

For `COc1ccc(C2=CCC(C)(C)c3ccc(C#Cc4ccc(C(=O)O)cc4)cc32)cc1` [Compound 22, 4-[(5,6-Dihydro-5,5-dimethyl-8-(4-methoxyphenyl)-2-naphthalenyl)ethynyl]benzoic acid], the Emax at RARγ was 2%; on RARβ it was 0%; on RARα, 0%. The “Transactivation Assay Efficacy (% of RA activity) RXRβ” value in the experiment on RXRβ is 0.00 % of RA activity.

On to `CC1(C)CC=C(c2ccc(C(F)(F)F)cc2)c2cc(C#Cc3ccc(C(=O)O)cc3)ccc21` [Compound 23, 4-[(5,6-Dihydro-5,5-dimethyl-8-(4-trifluoromethylphenyl)-2-naphthalenyl)ethynyl]benzoic acid], for which the figures for the Emax on RARγ, on RARβ and at RARα were 3%, 6% and 0%, respectively. Also, the “Transactivation Assay Efficacy (% of RA activity) RXRβ” value in the experiment with RXRβ is given as 0.00 % of RA activity.

Regarding `Cc1cc(C)cc(C2=CCC(C)(C)c3ccc(C#Cc4ccc(C(=O)O)cc4)cc32)c1` [Compound 24, 4-[(5 6-Dihydro-5,5-dimethyl-8-(3,5-dimethylphenyl)-2-naphthalenyl)ethynyl]benzoic acid], the results for the Emax on RARγ, at RARβ and at RARα were 4%, 7% and 3%, respectively. For the same compound, the “Transactivation Assay Efficacy (% of RA activity) RXRβ” value in the experiment with RXRβ is recorded as 0.00 % of RA activity.

As to `CC1(C)CC=C(c2ccc(Cl)cc2)c2cc(C#Cc3ccc(C(=O)O)cc3)ccc21` [Compound 25, 4-[(5,6-Dihydro-5,5-dimethyl-8-(4-chlorophenyl)-2-naphthalenyl)ethynyl]benzoic acid], the values for the Emax on RARγ, at RARβ and on RARα were 3%, 3% and 2%, respectively. Moreover, in the experiment with RXRβ, the “Transactivation Assay Efficacy (% of RA activity) RXRβ” value is reported as 0.00 % of RA activity.

Regarding `CC1(C)CC=C(c2cccnc2)c2cc(C#Cc3ccc(C(=O)O)cc3)ccc21` [Compound 26, 4-[(5,6-Dihydro-5,5-dimethyl-8-(3-pyridyl)-2-naphthalenyl)ethynyl]benzoic acid], the Emax on RARγ amounted to 0%; at RARβ, 6%; at RARα, 1%. Further, in the experiment on RXRβ, the “Transactivation Assay Efficacy (% of RA activity) RXRβ” value is given as 0.00 % of RA activity.

Regarding `Cc1ccccc1C1=CCC(C)(C)c2ccc(C#Cc3ccc(C(=O)O)cc3)cc21` [Compound 27, 4-[(5,6-Dihydro-5,5-dimethyl-8-(2-methylphenyl)-2-naphthalenyl)ethynyl]benzoic acid], the Emax came out at 6% at RARγ, 14% on RARβ and 9% on RARα. In the experiment with RXRβ, the “Transactivation Assay Efficacy (% of RA activity) RXRβ” value was 0.00 % of RA activity.

As to `CC1(C)CC=C(c2cccc(O)c2)c2cc(C#Cc3ccc(C(=O)O)cc3)ccc21` [Compound 28, 4-[(5,6-Dihydro5,5-dimethyl-8-(3-hydroxyphenyl)-2-naphthalenyl)ethynyl]benzoic acid], the results for the Emax on RARγ, on RARβ and at RARα were 2%, 10% and 2%, respectively. For the same compound, the “Transactivation Assay Efficacy (% of RA activity) RXRβ” value in the experiment with RXRβ is reported as 0.00 % of RA activity.

In the case of `CC1(C)CC=C(c2ccc(O)cc2)c2cc(C#Cc3ccc(C(=O)O)cc3)ccc21` [Compound 29, 4-[(5,6-Dihydro-5,5-dimethyl-8-(4-hydroxyphenyl)-2-naphthalenyl)ethynyl]benzoic acid], the Emax at RARγ stood at 11%; at RARβ, 6%; at RARα, 0%. Also, the “Transactivation Assay Efficacy (% of RA activity) RXRβ” value in the experiment on RXRβ is 6.00 % of RA activity.

Regarding `Cc1cnc(C2=CCC(C)(C)c3ccc(C#Cc4ccc(C(=O)O)cc4)cc32)s1` [Compound 30, 4-[(5,6-Dihydro-5,5-dimethyl-8-(5-methylthiazol-2-yl)-2-naphthalenyl)ethynyl]benzoic acid], the Emax worked out at 1% on RARγ, 5% at RARβ and 3% at RARα. Further, the “Transactivation Assay Efficacy (% of RA activity) RXRβ” value with RXRβ is given as 9.00 % of RA activity.
